Assays:
[1] = tested on: sub-genomic replicon, genotype 1b (Con1b); test: Sub-genomic replicon assay (luciferase); type: cell-based, hepatitis C virus; conditions: FIG. 8
Experimental: This assay uses a sub-genomic replicon analogous to that described by Lohmann (Lohmann et al., 1999). As above, we co-transfect an RNA encoding renilla […] luciferase to allow normalization of transfection levels. In these assays we usually transfect the sub-genomic replicon (and renilla) RNA 24 hours before addition of the oligonucleotides.
In this assay we investigated inhibition of luciferase gene activity encoding by the sub-genomic replicon and the influence of prior transfection of oligonucleotides directed against SL9266 or SL9571. The sub-genomic replicon is a genotype 1b sequences (Con1b) and directly complementary oligonucleotides directed against SL9266 (labelled anti SL9266_C) inhibit replication by ˜70% (see FIG. 8).

[2] = tested on: translation of hepatitis C virus; test: Translation assay with bicistronic luciferase reporter, co-transfected with oligonucleotides; type: cell-based; conditions: Huh-7.5 cells, added at 1600 nM, normalized to untreated samples
Text: The translation assay uses the bicistronic reporter gene system described in Example 1. In brief, a firefly luciferase reporter gene is under the translational control of the HCV internal ribosome entry site (IRES) as part of the complete 5′ untranslated region of HCV. The luciferase gene is followed by an IRES from an unrelated virus (encephalomyocarditis virus; EMCV) which drives expression of the RNA dependent RNA polymerase (RdRp) of HCV (the NS5B protein) which, in turn, is followed by the HCV 3′ untranslated region (3′ UTR).
All experiments are routinely conducted in human hepatoma cells—Huh-7.5. This is the cell line in which HCV replicates. However, we have also investigated the bicistronic reporter system in HepG2, HeLa and murine cell lines, as well as in cell free translation systems supplemented with Huh-7.5 cell extracts.
The readout of the translation assay is luciferase activity. To control for differences in transfection we co-transfected a separate plasmid encoding renilla luciferase and normalize all firefly results to this.
The translation inhibition assay is typically conducted by co-transfecting RNA generated in vitro from the bicistronic reporter plasmid with oligonucleotides to be tested. Assays for luciferase are routinely conducted four hours post transfection.

[3] = tested on: genotype 2a JFH-1 hepatitis C virus; test: Virus production / virus replication assay (HCVcc, NS5A immunofocal staining); type: cell-based; conditions: JFH-1 in Huh-7.5 cells, compared to untreated cells, FIG. 9
Experimental: This assay uses the HCVcc system that measures the production of infectious genotype 2a JFH-1 hepatitis C virus as described previously (Wakita et al., 2005). In this assay oligonucleotides directed against RNA sequences or structures are transfected into Huh-7.5 cells and a known amount of virus added 4 hours later. After 24 hours incubation the cell sheet is fixed and virus replication quantified by immunofocal staining for virus antigen (in this instance the NS5A protein). Infected cells are counted using a fluorescence microscope.

Q: How did the “inhibition of replication (replicon luciferase activity), in words” value [1] turn out when “5′-ACGCTGTGAAAAATGTC-3′ [JFH-1 anti-SL9266 LNA oligonucleotide]” was run?
A: Its value is “only partially inhibitory”.

Q: Which results are given for “5′-GCACAGCGCAAGTATGTTA-3′ [Randomised LNA oligonucleotide]”?
A: inhibition of translation (maximum) [2]: ~20%; influence on virus replication, in words [3]: little or no influence

Q: For “5′-GGGCACGAGACAGGCTGTGAT-3′ [Con1b anti-SL9266 LNA oligonucleotide]”, which “inhibition of replication (replicon luciferase activity)” value [1] is on record?
A: Its value is roughly 70%.
